Experimental findings from patent US20220153732A1, “PROTEIN SECRETION INHIBITORS” (KEZAR LIFE SCIENCES, priority 2019, published 2022) are described below.

Common to all, as to type: cell-based
Experiment [1] relates to PD1-ss+10aa/Gaussia Luciferase. In words: Dox-Induced PD1-ss-Gluc Assay. The essentials:
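Compounds, diluted in DMSO/media with doxycycline, were added to cells plated a day earlier and kept at 37° C under 5% CO2. The cells stably express a Gaussia luciferase construct fused to PD1-ss+10aa, induced via the T-REx system. Unassigned stereochemistry means mixture data.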

For experiment [2], the system named is TNFα-FL/Gaussia Luciferase. In words: Dox Induced TNFα-FL-Gluc Assay. A digest of the protocol: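 Compounds were added in doxycycline-containing DMSO/media to cells plated the previous day and incubated at 37° C under 5% CO2. These cells stably express a TNFα-FL/Gaussia luciferase cDNA whose expression is under T-REx (Dox-inducible) control, selected with Hygromycin and Blasticidin.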

The subject of experiment [3] is HER3-ss+4aa/Gaussia Luciferase. In words: Dox-Induced Her3-ss-Gluc Assay. The essentials: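 Compounds, diluted in DMSO/media containing doxycycline, were incubated at 37° C., 5% CO2 with cells seeded one day earlier. The cells stably express HER3-ss+4aa/Gaussia luciferase under T-REx control. Where no stereochemistry is shown, data refer to the mixture of stereoisomers.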

Experiment [4] concerns IL-2-FL/Gaussia Luciferase. In words: Dox Induced IL2-FL-Gluc Assay. The essentials: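 Compounds were added together with doxycycline in DMSO/media and incubated at 37° C., 5% CO2. The cells were a stably selected line carrying IL-2-FL/Gaussia luciferase under T-REx inducible control. Structures drawn without stereochemistry were tested as stereoisomer mixtures.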
In experiment [5] the test system is human multiple myeloma cell line NCI-H929. As to the kind of experiment: H929 Cell Viability Assay. Conditions: 48 hr, NCI-H929 cells, Celltiter-Glo, read-out: 48 hr H929 Viability Celltiter-Glo: Mean EC50. As for the experimental part:
Plates were incubated at 37° C., 5% CO2 for 48 hours. After 48 hours, Celltiter-Glo® (Promega) was added to each well and luciferase signal was quantified using Tecan Infinite M1000 Pro for cell viability determination.
For chemical structures that include one or more stereoisomers, but are illustrated without indicating stereochemistry, the assay data refers to a mixture of stereoisomers.
For orientation: Cellular ATP, detected with luciferase, serves as a proxy for viable cell number.

Experiment [6] concerns human multiple myeloma cell line U266B1. As to the kind of experiment: U266 Cell Viability Assay. To be noted: U-266, 48 hr, U266B1 cells, Celltiter-Glo, read-out: 48 hr U266 Viability Celltiter-Glo: Mean EC50. A digest of the protocol:
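Viability measured by CellTiter-Glo luciferase signal after 48 h compound exposure (37 °C, 5% CO2) of U266B1 cells in 384-well format. Where stereochemistry is not shown, data refer to the stereoisomer mixture.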

Setting [7] is: 24 hr, doxycycline-induced, 293FRT/TO cells; read-out: 24 hr Dox Inducible PD1ssGluc 293FRT/TO: Mean IC50.
Setting [8] is: 24 hr, doxycycline-induced, 293FRT/TO cells; read-out: 24 hr Dox Inducible TNFaFLGluc 293FRT/TO: Mean IC50.
[9] abbreviates: 24 hr, doxycycline-induced, 293FRT/TO cells; read-out: 24 hr Dox Inducible Her3(ss + 4)Gluc 293FRT/TO: Mean IC50.
Setting [10] is: 24 hr, doxycycline-induced, 293FRT/TO cells; read-out: 24 hr Dox Inducible IL2FLGIuc 293FRT/TO: Mean IC50.
Where [11] appears, read: read-out: 24 hr Dox Inducible PD1ssGluc 293FRT/TO: Mean IC50; 24 hr, doxycycline-induced, 293FRT/TO cells.
Where [12] appears, read: read-out: 24 hr Dox Inducible TNFaFLGluc 293FRT/TO: Mean IC50; 24 hr, doxycycline-induced, 293FRT/TO cells.
The mark [13] stands for this setting: read-out: 24 hr Dox Inducible Her3(ss + 4)Gluc 293FRT/TO: Mean IC50; 24 hr, doxycycline-induced, 293FRT/TO cells.
Setting [14] is: read-out: 24 hr Dox Inducible IL2FLGIuc 293FRT/TO: Mean IC50; 24 hr, doxycycline-induced, 293FRT/TO cells.

SMILES strings stand for the structures. Where two headings read alike, the source gives them in different places.

On to `O=C(Nc1nc([C@@H]2CCCN2C(=O)c2ccccc2)cs1)c1cccn1Cc1ccncc1` [Compound A313], for which the IC50 in experiment [1] (setting [7]) is 3860 nM; in experiment [2] (setting [8]) it was above 25000 nM; in experiment [3] (setting [9]) it was 7900 nM; in experiment [4] (setting [10]), 6360 nM. In addition, the EC50 in experiment [5] and in experiment [6] was above 25000 nM throughout.

For the compound `COc1ccc(O[C@H]2C[C@H](c3csc(NC(=O)c4cccn4Cc4ccncc4)n3)C2)nc1` [Compound A314], the IC50 was 47 nM in experiment [1] (setting [7]), 1470 nM in experiment [2] (setting [8]), 145 nM in experiment [3] (setting [9]) and 424 nM in experiment [4] (setting [10]). The EC50 in experiment [5] worked out at 9980 nM; in experiment [6] it was 16000 nM.

As to `COc1ccc(N2CC(c3csc(NC(=O)c4cccn4Cc4ccncc4)n3)C2)nc1` [Compound A315], the IC50 in experiment [1] (setting [7]) is 253 nM; in experiment [2] (setting [8]), 8030 nM; in experiment [3] (setting [9]), 827 nM; in experiment [4] (setting [10]) it was 1420 nM. The EC50 in experiment [5] and in experiment [6] was above 25000 nM throughout.

Consider `O=C(Nc1nc(C2CN(c3ccccc3)C2)cs1)c1cccn1Cc1ccncc1` [Compound A316], for which the IC50 in experiment [1] (setting [7]) came to 117 nM; in experiment [2] (setting [8]), 3170 nM; in experiment [3] (setting [9]), 313 nM; in experiment [4] (setting [10]), 762 nM. The concentration for a half-maximal effect (EC50) in experiment [5] and in experiment [6] was above 25000 nM each time.

Take `O=C(Nc1nc([C@H]2CCCN2c2ccccn2)cs1)c1cccn1Cc1ccncc1` [Compound A317]: the IC50 in experiment [1] (setting [7]) came out at 25 nM; in experiment [2] (setting [8]), 427 nM; in experiment [3] (setting [9]), 64 nM; in experiment [4] (setting [10]), 57 nM. The results for the EC50 in experiment [5] and in experiment [6] were 2540 nM and above 25000 nM, respectively.

`O=C(Nc1nc([C@@H]2CCCN2c2ccccc2)cs1)c1cccn1Cc1ccncc1Cl` [Compound A318]: the IC50 in experiment [1] (setting [7]) is 49 nM; in experiment [2] (setting [8]), 817 nM; in experiment [3] (setting [9]) it was 97 nM; in experiment [4] (setting [10]), 184 nM. For the same compound, the EC50 is 6040 nM in experiment [5] and above 25000 nM in experiment [6].

As for `O=C(Nc1nc([C@H]2CCC(=O)N2c2ccccc2)cs1)c1cccn1Cc1ccncc1` [Compound A319], the IC50 in experiment [1] (setting [7]) worked out at 1310 nM; in experiment [2] (setting [8]) it was 16000 nM; in experiment [3] (setting [9]), 2720 nM; in experiment [4] (setting [10]), 1840 nM. Further, the EC50 in experiment [5] and in experiment [6] was above 25000 nM in each case.

For the compound `O=C(Nc1nc([C@@H]2CCC(=O)N2Cc2ccccc2)cs1)c1cccn1Cc1ccncc1` [Compound A320], the IC50 was 10400 nM in experiment [1] (setting [7]), above 25000 nM in experiment [2] (setting [8]), above 25000 nM in experiment [3] (setting [9]) and above 25000 nM in experiment [4] (setting [10]). Besides, the concentration giving a half-maximal response (EC50) in experiment [5] and in experiment [6] was above 25000 nM in each case.

In the case of `O=C(Nc1nc([C@H]2C[C@@H](O)CN2c2ccccc2)cs1)c1cccn1Cc1ccncc1` [Compound A321], the IC50 turned out to be 215 nM in experiment [1] (setting [7]), 4170 nM in experiment [2] (setting [8]), 902 nM in experiment [3] (setting [9]) and 948 nM in experiment [4] (setting [10]). Besides, the EC50 was 9730 nM in experiment [5] and above 25000 nM in experiment [6].

Take `CC(C)(C)[Si](O[C@@H]1C[C@H](c2csc(NC(=O)c3cccn3Cc3ccncc3)n2)N(c2ccccc2)C1)(c1ccccc1)c1ccccc1` [Compound A322]: the IC50 was 3 nM in experiment [1] (setting [11]), 14 nM in experiment [2] (setting [12]), 9 nM in experiment [3] (setting [13]) and 9 nM in experiment [4] (setting [14]). The figures for the EC50 in experiment [5] and in experiment [6] were 315 nM and above 25000 nM, respectively.

On to `CC(C)(C)[Si](O[C@H]1C[C@H](c2csc(NC(=O)c3cccn3Cc3ccncc3)n2)N(c2ccccc2)C1)(c1ccccc1)c1ccccc1` [Compound A323], for which the IC50 in experiment [1] (setting [11]) worked out at 7 nM; in experiment [2] (setting [12]), 11 nM; in experiment [3] (setting [13]), 13 nM; in experiment [4] (setting [14]), 10 nM. Further, the EC50 was 118 nM in experiment [5] and above 25000 nM in experiment [6].

Take `O=C(Nc1nc([C@H]2CC[C@H]2c2ccccc2)cs1)c1cccn1Cc1ccncc1` [Compound A324]: the IC50 in experiment [1] (setting [7]) came to 289 nM; in experiment [2] (setting [8]), 3010 nM; in experiment [3] (setting [9]), 582 nM; in experiment [4] (setting [10]), 475 nM. Also, the EC50 in experiment [5] is 11300 nM; in experiment [6], above 25000 nM.

Take `CO[C@@H]1C[C@H](c2csc(NC(=O)c3cccn3Cc3ccncc3)n2)N(c2ccccc2)C1` [Compound A325]: the IC50 in experiment [1] (setting [7]) turned out to be 26 nM; in experiment [2] (setting [8]) it was 206 nM; in experiment [3] (setting [9]), 46 nM; in experiment [4] (setting [10]), 58 nM. The results for the EC50 in experiment [5] and in experiment [6] were 3620 nM and above 25000 nM, respectively.

Consider `O=C(Nc1nc([C@H]2C[C@H](O)CN2c2ccccc2)cs1)c1cccn1Cc1ccncc1` [Compound A326], for which the IC50 in experiment [1] (setting [7]) was 59 nM; in experiment [2] (setting [8]), 308 nM; in experiment [3] (setting [9]), 201 nM; in experiment [4] (setting [10]), 126 nM. The EC50 in experiment [5] was 5000 nM; in experiment [6], above 25000 nM.

For the compound `O=C(Nc1nc(/C=C/c2ccc(OC(F)(F)F)cn2)cs1)c1cccn1Cc1ccncc1` [Compound A327], the IC50 amounted to 16 nM in experiment [1] (setting [7]), 4490 nM in experiment [2] (setting [8]), 469 nM in experiment [3] (setting [9]) and 999 nM in experiment [4] (setting [10]). For the same compound, the values for the EC50 in experiment [5] and in experiment [6] were 15100 nM and above 25000 nM, respectively.

Regarding `O=C(Nc1nc([C@H]2CCCN2c2ccc3c(c2)OC(F)(F)O3)cs1)c1cccn1Cc1ccncc1` [Compound A328], the IC50 stood at 9 nM in experiment [1] (setting [7]), 105 nM in experiment [2] (setting [8]), 12 nM in experiment [3] (setting [9]) and 14 nM in experiment [4] (setting [10]). In addition, the EC50 in experiment [5] worked out at 381 nM; in experiment [6] it was 16500 nM.

As to `O=C(Nc1nc([C@H]2C[C@H](Oc3ccccc3)C2)cs1)c1cccn1Cc1ccncc1` [Compound A329], the IC50 in experiment [1] (setting [7]) was 202 nM; in experiment [2] (setting [8]), 3160 nM; in experiment [3] (setting [9]), 342 nM; in experiment [4] (setting [10]), 739 nM. The values for the concentration for a half-maximal effect (EC50) in experiment [5] and in experiment [6] were 22800 nM and above 25000 nM, respectively.

On to `O=C(Nc1nc([C@H]2C[C@@H](Oc3ccccc3)C2)cs1)c1cccn1Cc1ccncc1` [Compound A330], for which the IC50 in experiment [1] (setting [7]) stood at 218 nM; in experiment [2] (setting [8]), 3920 nM; in experiment [3] (setting [9]), 475 nM; in experiment [4] (setting [10]), 1020 nM. The EC50 in experiment [5] was 19200 nM; in experiment [6], above 25000 nM.

Consider `O=C(Nc1nc([C@H]2CC[C@@H]2c2ccccc2)cs1)c1cccn1Cc1ccncc1` [Compound A331], for which the IC50 turned out to be 64 nM in experiment [1] (setting [7]), 423 nM in experiment [2] (setting [8]), 82 nM in experiment [3] (setting [9]) and 178 nM in experiment [4] (setting [10]). For the same compound, the EC50 in experiment [5] is 4720 nM; in experiment [6] it was above 25000 nM.

In the case of `O=C(Nc1nc([C@@H]2CCCCN2c2ccccc2)cs1)c1cccn1Cc1ccncc1` [Compound A332], the IC50 came out at 64 nM in experiment [1] (setting [7]), 516 nM in experiment [2] (setting [8]), 97 nM in experiment [3] (setting [9]) and 82 nM in experiment [4] (setting [10]). Also, the EC50 in experiment [5] was 4290 nM; in experiment [6], above 25000 nM.

Take `CO[C@H]1C[C@H](c2csc(NC(=O)c3cccn3Cc3ccncc3)n2)N(c2ccccc2)C1` [Compound A333]: the IC50 in experiment [1] (setting [7]) worked out at 21 nM; in experiment [2] (setting [8]), 165 nM; in experiment [3] (setting [9]), 42 nM; in experiment [4] (setting [10]) it was 27 nM. The EC50 in experiment [5] is 1480 nM; in experiment [6], above 25000 nM.

What is called EC50 is the concentration needed to bring the measured effect to its halfway point.
